Earlier results as cited in patent US20040253299A1, “Transdermal therapeutic system (reservoir-tts) for using pramipexole and ropinirole” (priority 2001, published 2004).

Conditions: administered orally

| SMILES | bioavailability [%] |
| --- | --- |
| CCCN(CCC)CCc1cccc2c1CC(=O)N2 [Ropinirole, 4-(2-di-n-propylaminoethyl)-2-(3H)-indolone] | 50 |
| CCCNC1CCc2nc(N)sc2C1 (centres unmarked) [pramipexole, 2-amino-6-n-propylamino-4,5,6,7-tetrahydrobenzothiazole] | 90 |
